Data published in ChEMBL document CHEMBL1201862, “PubChem BioAssay data set” (2004).
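A five-concentration, 48-hour dose response in 96-well plates underlies each endpoint, interpolated linearly between surrounding concentrations. GI50 = concentration required for 50% inhibition of growth.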 Activity calls are given as the source filed them. No stated cut-off is given here; in the data, active = GI50 up to about 1.1 µM and inactive = higher.

Key:
Assay in all cases: NCI-60 cell line screen, 48 h
[1] = tested on: 786-0
[2] = tested on: A498
[3] = tested on: A549
[4] = tested on: CAKI-1
[5] = tested on: CCRF-CEM
[6] = tested on: COLO 205
[7] = tested on: DLD-1
[8] = tested on: DMS-114
[9] = tested on: DMS-273
[10] = tested on: EKVX
[11] = tested on: HCT-116
[12] = tested on: HCT-15
[13] = tested on: HL-60
[14] = tested on: HOP-62
[15] = tested on: HOP-92
[16] = tested on: HT-29
[17] = tested on: IGROV-1
[18] = tested on: K562
[19] = tested on: KM-20L2
[20] = tested on: KM12
[21] = tested on: LOX IMVI
[22] = tested on: LXFL 529
[23] = tested on: M14
[24] = tested on: M19-MEL
[25] = tested on: MOLT-4
[26] = tested on: Malme-3M
[27] = tested on: NCI-H226
[28] = tested on: NCI-H23
[29] = tested on: NCI-H460
[30] = tested on: NCI-H522
[31] = tested on: OVCAR-3
[32] = tested on: OVCAR-4
[33] = tested on: OVCAR-5
[34] = tested on: OVCAR-8
[35] = tested on: RPMI-8226
[36] = tested on: RXF 393
[37] = tested on: RXF 631
[38] = tested on: SF-268
[39] = tested on: SF-295
[40] = tested on: SF-539
[41] = tested on: SK-MEL-5
[42] = tested on: SK-OV-3
[43] = tested on: SN12C
[44] = tested on: SNB-19
[45] = tested on: SNB-75
[46] = tested on: SNB-78
[47] = tested on: SR
[48] = tested on: SW-620
[49] = tested on: TK-10
[50] = tested on: U-251
[51] = tested on: UACC-257
[52] = tested on: UACC-62
[53] = tested on: UO-31
[54] = tested on: XF498
[55] = tested on: ACHN
[56] = tested on: HCC 2998
[57] = tested on: HOP-18
[58] = tested on: SK-MEL-28
[59] = tested on: SK-MEL-2

SMILES: N#C[C-](C#N)[n+]1ccc(Cl)cc1
- GI50 [1]: 18.7 µM (inactive)
- GI50 [2]: 28.7 µM (inactive)
- GI50 [3]: 34.3 µM (inactive)
- GI50 [4]: 3.53 µM (inactive)
- GI50 [5]: 9.27 µM (inactive)
- GI50 [6]: 18.5 µM (inactive)
- GI50 [7]: 11.5 µM (inactive)
- GI50 [8]: 13.4 µM (inactive)
- GI50 [9]: 18.7 µM (inactive)
- GI50 [10]: 19 µM (inactive)
- GI50 [11]: 14.5 µM (inactive)
- GI50 [12]: 14.4 µM
- GI50 [13]: 4.27 µM (inactive)
- GI50 [14]: 29.2 µM (inactive)
- GI50 [15]: 15.3 µM (inactive)
- GI50 [16]: 18 µM (inactive)
- GI50 [17]: 19.1 µM (inactive)
- GI50 [18]: 3.03 µM (inactive)
- GI50 [19]: 24.2 µM (inactive)
- GI50 [20]: 23.3 µM (inactive)
- GI50 [21]: 11.2 µM (inactive)
- GI50 [22]: 13.6 µM (inactive)
- GI50 [23]: 17 µM (inactive)
- GI50 [24]: 12.4 µM (inactive)
- GI50 [25]: 12.7 µM (inactive)
- GI50 [26]: 15.8 µM (inactive)
- GI50 [27]: 25.3 µM (inactive)
- GI50 [28]: 16.2 µM (inactive)
- GI50 [29]: 22.5 µM (inactive)
- GI50 [30]: 3.19 µM (inactive)
- GI50 [31]: 17.7 µM (inactive)
- GI50 [32]: 24.9 µM (inactive)
- GI50 [33]: 18.7 µM (inactive)
- GI50 [34]: 17.1 µM (inactive)
- GI50 [35]: 4.79 µM (inactive)
- GI50 [36]: 16.7 µM (inactive)
- GI50 [37]: 17.4 µM (inactive)
- GI50 [38]: 14.4 µM (inactive)
- GI50 [39]: 19 µM (inactive)
- GI50 [40]: 20.4 µM (inactive)
- GI50 [41]: 16.1 µM (inactive)
- GI50 [42]: 34 µM (inactive)
- GI50 [43]: 14.4 µM (inactive)
- GI50 [44]: 32.1 µM (inactive)
- GI50 [45]: 17.5 µM (inactive)
- GI50 [46]: 17.9 µM (inactive)
- GI50 [47]: 14.4 µM (inactive)
- GI50 [48]: 10.9 µM (inactive)
- GI50 [49]: 22.3 µM (inactive)
- GI50 [50]: 16.2 µM (inactive)
- GI50 [51]: 15.2 µM (inactive)
- GI50 [52]: 15.9 µM (inactive)
- GI50 [53]: 22.8 µM (inactive)
- GI50 [54]: 19.3 µM (inactive)

SMILES: Cc1ccccc1C1=[N+]([O-])c2ccc(Cl)cc2C1=O
- GI50 [1]: 18.9 µM (inactive)
- GI50 [2]: 20.2 µM (inactive)
- GI50 [3]: 19.6 µM (inactive)
- GI50 [55]: 12.9 µM (inactive)
- GI50 [5]: 3.82 µM (inactive)
- GI50 [6]: 7.76 µM (inactive)
- GI50 [7]: 7.41 µM (inactive)
- GI50 [10]: 12.5 µM (inactive)
- GI50 [56]: 13.6 µM (inactive)
- GI50 [11]: 7.46 µM (inactive)
- GI50 [12]: 13.3 µM
- GI50 [13]: 2.35 µM (inactive)
- GI50 [57]: 14.1 µM (inactive)
- GI50 [14]: 20 µM (inactive)
- GI50 [15]: 14.8 µM (inactive)
- GI50 [16]: 5.01 µM (inactive)
- GI50 [17]: 15.3 µM (inactive)
- GI50 [18]: 6.12 µM (inactive)
- GI50 [19]: 4.51 µM (inactive)
- GI50 [20]: 14.1 µM (inactive)
- GI50 [21]: 7.78 µM (inactive)
- GI50 [22]: 12 µM (inactive)
- GI50 [23]: 16.3 µM (inactive)
- GI50 [24]: 8.05 µM (inactive)
- GI50 [25]: 3.6 µM (inactive)
- GI50 [26]: 16.9 µM (inactive)
- GI50 [27]: 14.4 µM (inactive)
- GI50 [28]: 17.7 µM (inactive)
- GI50 [29]: 15.4 µM (inactive)
- GI50 [30]: 11.5 µM (inactive)
- GI50 [31]: 2.6 µM (inactive)
- GI50 [33]: 23.2 µM (inactive)
- GI50 [34]: 7.14 µM (inactive)
- GI50 [35]: 3.31 µM (inactive)
- GI50 [36]: 20 µM (inactive)
- GI50 [37]: 3.72 µM (inactive)
- GI50 [38]: 18.5 µM (inactive)
- GI50 [39]: 14.6 µM (inactive)
- GI50 [40]: 17.7 µM (inactive)
- GI50 [58]: 21.1 µM (inactive)
- GI50 [59]: 14.1 µM (inactive)
- GI50 [41]: 13.8 µM (inactive)
- GI50 [42]: 26.4 µM (inactive)
- GI50 [43]: 15.2 µM (inactive)
- GI50 [44]: 28.1 µM (inactive)
- GI50 [45]: 19.8 µM (inactive)
- GI50 [47]: 11.8 µM (inactive)
- GI50 [48]: 25.4 µM (inactive)
- GI50 [49]: 20 µM (inactive)
- GI50 [50]: 17.7 µM (inactive)
- GI50 [51]: 13.1 µM (inactive)
- GI50 [52]: 12.4 µM (inactive)
- GI50 [53]: 14.3 µM (inactive)
- GI50 [54]: 4.39 µM (inactive)
